The results in this text go back to ChEMBL document CHEMBL6134909 (Eur J Med Chem, 2025).

Active and inactive are the calls of the source. The calls are words filed in the database; no cut-off is given here.

Test [1] has as its system Influenza A virus. The test is described as follows: Anti-viral activity against Influenza A virus H3N2 A/Hong Kong/11/1968 infected in human A549 cells assessed as decrease in viral replication at 1 uM incubated with compound and virus for 1 hr followed by inoculum removal and media replacement with compound measured after 48 hrs by extracting viral supernatant from cells and transferring supernatant to MDCK cells for measuring plaque formation. It counts as functional, organism-based. To be noted: time 49.0 hrs.

Test [2] deals with Influenza A virus. Briefly: Anti-viral activity against Influenza A virus H3N2 A/Hong Kong/11/1968 infected in human A549 cells assessed as log reduction in viral titer at 1 uM incubated with compound and virus for 1 hr followed by inoculum removal and media replacement with compound measured after 48 hrs by extracting viral supernatant from cells and transferring supernatant to MDCK cells for measuring plaque formation. The class given is functional. The following applies: time 49 hrs.

As to `Cc1cc(C)n2c(NC3CCCCC3)c(-c3ccnc(Cl)c3)nc2n1`, the outcome in test [1] was Active. Still for that read-out and setting: then `COc1ccc(-c2nc3ncccn3c2NC2CCCCC2)cc1`, with “Active”. Consider `Fc1cc(OCc2ccc(C(F)(F)F)cc2)ccc1-c1nc2ncccn2c1NC1CCCCC1`, for which the log10PFU/ml in test [2] turned out to be 1.5. In addition, the outcome in test [1] was Active.

`Clc1cnc2nc(-c3ccccc3)c(NC3CCCCC3)n2c1`: the log10PFU/ml in test [2] was 1.5. Moreover, the result in test [1] was Active. On to `CCOC(=O)c1c(CSc2ccccc2)n(C)c2cc(Br)c(O)c(CN(C)C)c12` [UMIFENOVIR], for which the log10PFU/ml in test [2] is recorded as 1.5. For the same compound, the outcome in test [1] was Active. The corresponding values for `COc1cc(OC)cc(-c2nc3ncccn3c2NC2CCCCC2)c1` are 1.5 and “Active”. The matching figures for `Fc1ccc(-c2nc3ncccn3c2NC2CCCCC2)cc1N1CCOCC1`: 1.5 and “Active”. As to `Oc1ccc(-c2nc3ncccn3c2NC2CCCCC2)c(F)c1`, the log10PFU/ml in test [2] was determined as 1.5. The result in test [1] was Active. For the compound `Fc1ccc(-c2nc3ncccn3c2NC2CCCCC2)cc1F`, the result in test [1] was Active.

In the case of `CN1CCN(c2ccc(-c3nc4ncc(Cl)cn4c3NC3CCCCC3)c(F)c2)CC1`, the outcome in test [1] was Active. For the compound `COCOc1ccc(-c2nc3ncccn3c2NC2CCCCC2)c(F)c1`, in test [2], the log10PFU/ml worked out at 1.5. Moreover, the result in test [1] was Active.
